US4800199A, “3-[2-thiazoloamino]-8-oxo-7-substituted-5-thia-1-a zabicyclo-[4.2.0]oct-2-ene-2-carboxylic acid and salts thereof and diphenylmethyl esters thereof” (American Cyanamid Company, priority 1986, dated 1989)
≈ marks a conversion by molar mass, not a printed value.

Experiments:
Experiment in all cases: In vitro antibacterial activity, Mueller-Hinton agar dilution
Type in all cases: cell-based
[1] = test system: Klebsiella oxytoca IO 83-1; conditions: IO831, read-out: Minimal Inhibitory Concentration
Text: (§1) The results of this test on representative compounds of this invention appear in Table I.

[2] = test system: Klebsiella pneumoniae AD; conditions: read-out: Minimal Inhibitory Concentration
Text: as §1

[3] = test system: Morganella morganii IO 83-18; conditions: IO8318, read-out: Minimal Inhibitory Concentration
Text: as §1

[4] = test system: Serratia marcescens CMC 83-27; conditions: CMC8327, read-out: Minimal Inhibitory Concentration
Text: as §1

[5] = test system: Staphylococcus aureus SSC 82-57; conditions: SSC8257, read-out: Minimal Inhibitory Concentration
Text: as §1

[6] = test system: Citrobacter freundii IO 83-13; conditions: IO8313, read-out: Minimal Inhibitory Concentration
Text: as §1

[7] = test system: Staphylococcus aureus SSC 82-26; conditions: SSC8226, read-out: Minimal Inhibitory Concentration
Text: as §1

[8] = test system: Staphylococcus epidermidis CMC 83-133; conditions: CMC83133, read-out: Minimal Inhibitory Concentration
Text: as §1

[9] = test system: Staphylococcus aureus SSC 82-20; conditions: SSC8220, read-out: Minimal Inhibitory Concentration
Text: as §1

[10] = test system: Staphylococcus aureus SSC 82-24; conditions: SSC8224, read-out: Minimal Inhibitory Concentration
Text: as §1

[11] = test system: Escherichia coli 311; conditions: read-out: Minimal Inhibitory Concentration
Text: as §1

[12] = test system: Streptococcus faecalis ATCC 29212; conditions: Enterococcus faecalis, ATCC29212, read-out: Minimal Inhibitory Concentration
Text: as §1

[13] = test system: Escherichia coli CMC 84-11; conditions: CMC8411, read-out: Minimal Inhibitory Concentration
Text: as §1

[14] = test system: Acinetobacter CMC 83-89; conditions: CMC8389, read-out: Minimal Inhibitory Concentration
Text: as §1

[15] = test system: Citrobacter diversis K83-24; conditions: K8324, read-out: Minimal Inhibitory Concentration
Text: as §1

[16] = test system: Acinetobacter IO 83-49; conditions: IO8349, read-out: Minimal Inhibitory Concentration
Text: as §1

[17] = test system: Enterococcus CMC 83-53; conditions: CMC8353, read-out: Minimal Inhibitory Concentration
Text: as §1

[18] = test system: Staphylococcus aureus SSC 82-31; conditions: SSC8231, read-out: Minimal Inhibitory Concentration
Text: as §1

[19] = test system: Escherichia coli ATCC 25922; conditions: ATCC25922, read-out: Minimal Inhibitory Concentration
Text: as §1

[20] = test system: Enterobacter cloacae CMC 84-4; conditions: CMC844, read-out: Minimal Inhibitory Concentration
Text: as §1

[21] = test system: Pseudomonas aeruginosa 12-4-4; conditions: 1244, read-out: Minimal Inhibitory Concentration
Text: as §1

[22] = test system: Klebsiella pneumoniae CMC 84-5; conditions: CMC845, read-out: Minimal Inhibitory Concentration
Text: as §1

[23] = test system: Bacillus subtilis ATCC 6633; conditions: ATCC6633, read-out: Minimal Inhibitory Concentration
Text: as §1

[24] = test system: Pseudomonas aeruginosa ATCC 27853; conditions: ATCC27853, read-out: Minimal Inhibitory Concentration
Text: as §1

[25] = test system: Serratia marcescens F-35; conditions: F35, read-out: Minimal Inhibitory Concentration
Text: as §1

[26] = test system: Proteus rettgheri IO 83-21; conditions: read-out: Minimal Inhibitory Concentration
Text: as §1

[27] = test system: Micrococcus lutea PC 1001; conditions: PC1001, read-out: Minimal Inhibitory Concentration
Text: as §1

[28] = test system: Staphylococcus aureus ATCC 25923; conditions: ATCC25923, read-out: Minimal Inhibitory Concentration
Text: as §1

[29] = test system: Pseudonmonas aeruginosa CMC 83-19; conditions: read-out: Minimal Inhibitory Concentration
Text: as §1

[30] = test system: Enterobacter aerogenes IO 83-44; conditions: Klebsiella aerogenes, IO8344, read-out: Minimal Inhibitory Concentration
Text: as §1

[31] = test system: Providencia stuartii CMC 83-82; conditions: CMC8382, read-out: Minimal Inhibitory Concentration
Text: as §1

[32] = test system: Staphylococcus epidermidis ATCC 12228; conditions: ATCC12228, read-out: Minimal Inhibitory Concentration
Text: as §1

Structure (SMILES) | MIC [1] [µg/mL] | MIC [2] [µg/mL] | MIC [3] [µg/mL] | MIC [4] [µg/mL] | MIC [5] [µg/mL] | MIC [6] [µg/mL] | MIC [7] [µg/mL] | MIC [8] [µg/mL] | MIC [9] [µg/mL] | MIC [10] [µg/mL] | MIC [11] [µg/mL] | MIC [12] [µg/mL] | MIC [13] [µg/mL] | MIC [14] [µg/mL] | MIC [15] [µg/mL] | MIC [16] [µg/mL] | MIC [17] [µg/mL] | MIC [18] [µg/mL] | MIC [19] [µg/mL] | MIC [20] [µg/mL] | further results
CC(=O)OCC1=C(C(=O)O)N2C(=O)[C@@H](Nc3nc(C(=O)O)cs3)[C@H]2SC1 [Example 7, (6R-trans)-3-[(Acetyloxy)methyl]-7-[(4-carboxy-2-thiazolyl)amino]-8-oxo-5-thia-1-azabicyclo[4.2.0]oct-2-ene-2-carboxylic acid] | > 128 | > 128 | > 128 | > 128 | 128 (≈ 320 µM) | > 128 | 8 (≈ 20 µM) | 2 (≈ 5.01 µM) | 16 (≈ 40.1 µM) | > 128 | > 128 | > 128 | > 128 | > 128 | > 128 | > 128 | > 128 | 8 (≈ 20 µM) | > 128 | > 128 | MIC [21]: > 128 µg/mL; MIC [22]: > 128 µg/mL; MIC [23]: 8 µg/mL (≈ 20 µM); MIC [24]: > 128 µg/mL; MIC [25]: > 128 µg/mL; MIC [26]: 128 µg/mL (≈ 320 µM); MIC [27]: 16 µg/mL (≈ 40.1 µM); MIC [28]: 8 µg/mL (≈ 20 µM); MIC [29]: > 128 µg/mL; MIC [30]: > 128 µg/mL; MIC [31]: > 128 µg/mL; MIC [32]: 4 µg/mL (≈ 10 µM)
CC(=O)OCC1=C(C(=O)O)N2C(=O)[C@@H](Nc3nc(C(=O)OCC(Cl)(Cl)Cl)cs3)[C@H]2SC1 [Example 9, (6R-trans)-3-[(Acetyloxy)methyl]-8-oxo-7-[[4-[(2,2,2-trichloroethoxy)carbonyl]-2-thiazolyl]amino]-5-thia-1-azabicyclo[4.2.0]oct-2-ene-2-carboxylic acid] | > 128 | > 128 | > 128 | > 128 | 128 (≈ 241 µM) | > 128 | 0.12 (≈ 0.226 µM) | ≤ 0.06 | 0.25 (≈ 0.471 µM) | > 128 | > 128 | 16 (≈ 30.1 µM) | > 128 | > 128 | > 128 | > 128 | 64 (≈ 121 µM) | ≤ 0.06 | > 128 | > 128 | MIC [21]: > 128 µg/mL; MIC [22]: > 128 µg/mL; MIC [23]: 0.5 µg/mL (≈ 0.942 µM); MIC [24]: > 128 µg/mL; MIC [25]: > 128 µg/mL; MIC [26]: 64 µg/mL (≈ 121 µM); MIC [27]: 1 µg/mL (≈ 1.88 µM); MIC [28]: 0.12 µg/mL (≈ 0.226 µM); MIC [29]: > 128 µg/mL; MIC [30]: > 128 µg/mL; MIC [31]: > 128 µg/mL; MIC [32]: ≤ 0.06 µg/mL
CC(=O)OCC1=C(C(=O)O)N2C(=O)[C@@H](Nc3nc(C(=O)NCc4ccccc4)cs3)[C@H]2SC1 [Example 11, (6R-trans)-3-[(Acetyloxy)methyl]-8-oxo-7-[[4-[[(phenylmethyl)amino]carbonyl]-2-thiazolyl]amino]-5-thia-1-azabicyclo[4.2.0]oct-2-ene-2-carboxylic acid] | > 128 | > 128 | > 128 | > 128 | 128 (≈ 262 µM) | > 128 | 4 (≈ 8.19 µM) | 2 (≈ 4.09 µM) | 8 (≈ 16.4 µM) | > 128 | > 128 | > 128 | > 128 | > 128 | > 128 | > 128 | > 128 | 4 (≈ 8.19 µM) | > 128 | > 128 | MIC [21]: > 128 µg/mL; MIC [22]: > 128 µg/mL; MIC [23]: 8 µg/mL (≈ 16.4 µM); MIC [24]: > 128 µg/mL; MIC [25]: > 128 µg/mL; MIC [26]: > 128 µg/mL; MIC [27]: 8 µg/mL (≈ 16.4 µM); MIC [28]: 4 µg/mL (≈ 8.19 µM); MIC [29]: > 128 µg/mL; MIC [30]: > 128 µg/mL; MIC [31]: > 128 µg/mL; MIC [32]: 2 µg/mL (≈ 4.09 µM)
CC(=O)OCC1=C(C(=O)O)N2C(=O)[C@@H](Nc3nc(C)cs3)[C@H]2SC1 [Example 12, (6R-trans)-3-[(Acetyloxy)methyl]-7-[(4-methyl-2-thiazolyl)amino]-8-oxo-5-thia-1-azabicyclo[4.2.0]oct-2-ene-2-carboxylic acid] | > 128 | 64 (≈ 173 µM) | > 128 | > 128 | 128 (≈ 346 µM) | > 128 | 4 (≈ 10.8 µM) | 2 (≈ 5.41 µM) | 4 (≈ 10.8 µM) | 64 (≈ 173 µM) | 64 (≈ 173 µM) | 128 (≈ 346 µM) | > 128 | > 128 | > 128 | > 128 | 128 (≈ 346 µM) | 4 (≈ 10.8 µM) | > 128 | > 128 | MIC [21]: > 128 µg/mL; MIC [22]: 128 µg/mL (≈ 346 µM); MIC [23]: 1 µg/mL (≈ 2.71 µM); MIC [24]: > 128 µg/mL; MIC [25]: > 128 µg/mL; MIC [26]: > 128 µg/mL; MIC [27]: 4 µg/mL (≈ 10.8 µM); MIC [28]: 4 µg/mL (≈ 10.8 µM); MIC [29]: > 128 µg/mL; MIC [30]: > 128 µg/mL; MIC [31]: > 128 µg/mL; MIC [32]: 2 µg/mL (≈ 5.41 µM)
